Measured values taken from the NIST ThermoML archive (doi:10.1021/acs.jced.7b01006).

Experiment: xn = mol fraction of the nth substance listed
Conditions: 100 kPa, Liquid; for electrical conductivity: Alternating current cell with electrodes; for viscosity: Falling or rolling sphere viscometry; for mass density: Vibrating tube method

CCCCn1cc[n+](C)c1C.N#C[S-] [1-butyl-2,3-dimethylimidazolium thiocyanate] + CC#N
Conditions | electrical conductivity [S/m] | mass density [kg/m3] | viscosity [mPa·s]
288.15 K, x1 = 0.1001 | 4.72 | 888.99 | 16.94
288.15 K, x1 = 0.2004 | 4.01 | 951.31 | 38.93
288.15 K, x1 = 0.2999 | 3.35 | 995.07 | 67.12
288.15 K, x1 = 0.4003 | 1.19 | 1026.63 | 102.7
288.15 K, x1 = 0.5001 | 0.765 | 1038.63 | 145.4
288.15 K, x1 = 0.5999 | 0.599 | 1050.73 | 193.9
288.15 K, x1 = 0.6999 | 0.429 | 1062.95 | 249.1
288.15 K, x1 = 0.8002 | 0.358 | 1068.26 | 310.4
288.15 K, x1 = 0.9002 | 0.24 | 1075.99 | 377.8
288.15 K, x1 = 1 | 0.106 | 1084.2 | 452.7
293.15 K, x1 = 0.1001 | 5.01 | 885.19 | 11.74
293.15 K, x1 = 0.2004 | 4.34 | 948.02 | 27.08
293.15 K, x1 = 0.2999 | 3.71 | 991.9 | 46.77
293.15 K, x1 = 0.4003 | 1.45 | 1024 | 71.58
293.15 K, x1 = 0.5001 | 0.919 | 1036.16 | 100.9
293.15 K, x1 = 0.5999 | 0.728 | 1048.16 | 134.8
293.15 K, x1 = 0.6999 | 0.531 | 1060.42 | 172.9
293.15 K, x1 = 0.8002 | 0.458 | 1066.14 | 214.7
293.15 K, x1 = 0.9002 | 0.316 | 1073.56 | 260.4
293.15 K, x1 = 1 | 0.153 | 1081.11 | 311.3
298.15 K, x1 = 0.1001 | 5.31 | 881.36 | 8.229
298.15 K, x1 = 0.2004 | 4.69 | 944.6 | 18.85
298.15 K, x1 = 0.2999 | 4.05 | 988.57 | 32.07
298.15 K, x1 = 0.4003 | 1.71 | 1021.27 | 49.45
298.15 K, x1 = 0.5001 | 1.12 | 1033.49 | 69.9
298.15 K, x1 = 0.5999 | 0.891 | 1045.66 | 93.7
298.15 K, x1 = 0.6999 | 0.654 | 1057.9 | 119.9
298.15 K, x1 = 0.8002 | 0.57 | 1063.84 | 148.9
298.15 K, x1 = 0.9002 | 0.39 | 1071.37 | 181
298.15 K, x1 = 1 | 0.217 | 1078.2 | 218
303.15 K, x1 = 0.1001 | 5.61 | 877.5 | 5.854
303.15 K, x1 = 0.2004 | 5.03 | 941.34 | 12.95
303.15 K, x1 = 0.2999 | 4.42 | 985.32 | 22.58
303.15 K, x1 = 0.4003 | 2.01 | 1018.59 | 34.51
303.15 K, x1 = 0.5001 | 1.32 | 1030.79 | 49.24
303.15 K, x1 = 0.5999 | 1.06 | 1043.17 | 66.62
303.15 K, x1 = 0.6999 | 0.795 | 1055.17 | 85.89
303.15 K, x1 = 0.8002 | 0.697 | 1061.75 | 106.9
303.15 K, x1 = 0.9002 | 0.497 | 1068.94 | 130.3
303.15 K, x1 = 1 | 0.293 | 1075.18 | 157.9
308.15 K, x1 = 0.1001 | 5.92 | 873.64 | 4.393
308.15 K, x1 = 0.2004 | 5.36 | 938.14 | 9.306
308.15 K, x1 = 0.2999 | 4.79 | 982.11 | 16.16
308.15 K, x1 = 0.4003 | 2.34 | 1015.92 | 24.59
308.15 K, x1 = 0.5001 | 1.56 | 1028.06 | 34.95
308.15 K, x1 = 0.5999 | 1.26 | 1040.79 | 47.89
308.15 K, x1 = 0.6999 | 0.96 | 1052.69 | 62.82
308.15 K, x1 = 0.8002 | 0.853 | 1059.56 | 78.98
308.15 K, x1 = 0.9002 | 0.61 | 1066.57 | 97.33
308.15 K, x1 = 1 | 0.386 | 1072.16 | 118.9
313.15 K, x1 = 0.1001 | 6.23 | 869.75 | 3.257
313.15 K, x1 = 0.2004 | 5.7 | 934.72 | 6.633
313.15 K, x1 = 0.2999 | 5.15 | 978.72 | 11.34
313.15 K, x1 = 0.4003 | 2.67 | 1013.21 | 17.39
313.15 K, x1 = 0.5001 | 1.81 | 1025.43 | 25.45
313.15 K, x1 = 0.5999 | 1.48 | 1038.3 | 35.42
313.15 K, x1 = 0.6999 | 1.16 | 1050.1 | 46.81
313.15 K, x1 = 0.8002 | 1.03 | 1057.26 | 59.49
313.15 K, x1 = 0.9002 | 0.749 | 1064.3 | 73.79
313.15 K, x1 = 1 | 0.496 | 1069.15 | 90.46
318.15 K, x1 = 0.1001 | 6.53 | 865.95 | 2.458
318.15 K, x1 = 0.2004 | 6.03 | 931.41 | 4.722
318.15 K, x1 = 0.2999 | 5.52 | 975.35 | 8.162
318.15 K, x1 = 0.4003 | 3.03 | 1010.57 | 12.95
318.15 K, x1 = 0.5001 | 2.07 | 1022.69 | 18.62
318.15 K, x1 = 0.5999 | 1.73 | 1035.83 | 26.33
318.15 K, x1 = 0.6999 | 1.38 | 1047.6 | 35.55
318.15 K, x1 = 0.8002 | 1.23 | 1055.02 | 46.09
318.15 K, x1 = 0.9002 | 0.913 | 1061.87 | 57.94
318.15 K, x1 = 1 | 0.627 | 1066.16 | 72.04
323.15 K, x1 = 0.1001 | 6.83 | 862.09 | 1.882
323.15 K, x1 = 0.2004 | 6.37 | 927.98 | 3.578
323.15 K, x1 = 0.2999 | 5.89 | 972.17 | 5.904
323.15 K, x1 = 0.4003 | 3.4 | 1007.9 | 9.491
323.15 K, x1 = 0.5001 | 2.37 | 1020.14 | 13.67
323.15 K, x1 = 0.5999 | 2.01 | 1033.37 | 19.96
323.15 K, x1 = 0.6999 | 1.63 | 1045.21 | 27.68
323.15 K, x1 = 0.8002 | 1.46 | 1052.82 | 36.89
323.15 K, x1 = 0.9002 | 1.1 | 1059.62 | 46.83
323.15 K, x1 = 1 | 0.774 | 1063.2 | 57.11
